Measured values taken from patent publication US10227551B2, “Sulfur-containing compounds as solvents” (Novus International, Inc., priority 2015, dated 2019).

How the values were obtained:
Aqueous solubility = type: physicochemical
Text: Table 5 presents the results.

[1] = Solvent properties (density, boiling point, flash point, freezing point, viscosity); type: physicochemical
Text: Isopropyl 2-hydroxy-4-(methylsulfinyl)butanoate (also called iC3SO) has the following properties.
Green or regular hard surface cleaner or degreaser formulations containing commercial surfactants or a mixture (i.e., monomers, dimers, and short oligomers) of octyl 2-hydroxy-4-(methylsulfinyl)butanoate (also called “C8SO”) were formulated, as shown in Table 2 below. The density of C8SO is 1.08 g/mL.

[2] = in water at 25° C. and atmospheric pressure

SMILES: CCCCOC(=O)C(O)CCSC (centres unmarked) [Butyl 2-hydroxy-4-(methylthio)butanoate, Butyl 2-Hydroxy-4-(Methylthio)Butanoate]
- Solubility (wt/wt total) (Aqueous solubility; [2]): 0.9 wt %

SMILES: CCCCCCOC(=O)C(O)CC[S+](C)[O-] (centres unmarked) [Hexyl 2-Hydroxy-4-(Methylsulfinyl)Butanoate]
- Solubility (wt/wt total) (Aqueous solubility; [2]): >50.0 wt %

SMILES: CSCCC(O)C(=O)OC(C)C (centres unmarked) [Isopropyl 2-hydroxy-4-(methylthio)butanoate]
- Solubility (wt/wt total) (Aqueous solubility; [2]): 2.5 wt %

SMILES: CCCCOC(=O)C(O)CC[S+](C)[O-] (centres unmarked) [Butyl 2-Hydroxy-4-(Methylsulfinyl)Butanoate]
- Solubility (wt/wt total) (Aqueous solubility; in water, marked *Theoretical): >50% wt %

SMILES: COC(=O)C(O)CC[S+](C)[O-] (centres unmarked) [Methyl 2-Hydroxy-4-(Methylsulfinyl)Butanoate]
- Solubility (wt/wt total) (Aqueous solubility; in water, marked *Theoretical): >50% wt %

SMILES: CCCCCCCCCCOC(=O)C(O)CCS(C)(=O)=O (centres unmarked) [Decyl 2-Hydroxy-4-(Methylsulfonyl)Butanoate]
- Solubility (wt/wt total) (Aqueous solubility; [2]): <0.1 wt %

SMILES: CCCCCCCCOC(=O)C(O)CC[S+](C)[O-] (centres unmarked) [Octyl 2-Hydroxy-4-(Methylsulfinyl)Butanoate]
- Solubility (wt/wt total) (Aqueous solubility; [2]): >50.0 wt %

SMILES: CC(C)OC(=O)C(O)CC[S+](C)[O-] (centres unmarked) [iC3SO, Isopropyl 2-hydroxy-4-(methylsulfinyl)butanoate]
- Boiling Point [1]: 248° ° C.
- Density [1]: 1.17 g/mL
- Flash Point [1]: 194° ° C.
- Freezing Point [1]: <−90° ° C.
- Viscosity [1]: 519 cps
- Solubility (wt/wt total) (Aqueous solubility; in water, marked *Theoretical): >50% wt %

SMILES: CCCCCCCCNC(=O)C(O)CC[S+](C)[O-] (centres unmarked) [2-Hydroxy-4-(Methylsulfinyl)-N-Octylbutanamide]
- Solubility (wt/wt total) (Aqueous solubility; [2]): >50.0 wt %
